Structures can show the parent of a compound that is named as a salt. Where two headings read alike, the source gives them in different places.
Experiments:
[1] = Righting reflex experiment on mice with prodrugs; format: in vivo; conditions: ICR, mouse, in vivo, mice; for MTD: prodrugs; for LD50: intravenous injection, prodrugs in physiological saline; on Anesthesia induction time: test concentration or dose not given here; on Anesthesia maintenance time: test concentration or dose not given here
Procedure: (§1) After adapting to the laboratory environment, the SPF-grade ICR mice were fasted for 12 hours.

ICR mice = assay: Righting reflex experiment on mice with prodrugs; format: in vivo; conditions: for ED50: Mus musculus; for SI: safety index, LD5/ED95, mice; for TI: therapeutic index, LD50/ED50, mice; on Anesthesia induction time: test concentration or dose not given here; on Anesthesia maintenance time: test concentration or dose not given here
Procedure: as §1

[2] = mice, intravenous injection, prodrugs formulated with physiological saline, read-out: ED50
[3] = mice, intravenous injection, prodrugs

## CC(C)c1cccc([C@H](C)C2CC2)c1OCOC(=O)C(NC(=O)OC(C)(C)C)C(C)C (stereo in doubt) [Compound 57, [2-[(1R)-1-cyclopropylethyl]-6-isopropyl-phenoxy]methyl(2R)-2-(tertbutoxycarbonylamino)-3-methyl-butanoate]
[1]; both sexes, intravenous
  MTD: 80 mg/kg
[1]; both sexes
  LD50: 120 mg/kg
ICR mice; [2]
  ED50: 36.7 mg/kg
ICR mice; [3]
  Anesthesia induction time: 135.8 s
  Anesthesia maintenance time: 1931.2 s
ICR mice; prodrugs
  SI: 1.3
  TI: 3.3

## CC(C)c1cccc([C@H](C)C2CC2)c1OCOP(=O)(OCOC(=O)C(C)(C)C)OCOC(=O)C(C)(C)C [Compound 35, [[2-[(1R)-1-cyclopropylethyl]-6-isopropyl-phenoxy]methoxy-(2,2-dimethylpropanoyloxymethoxy)phosphoryl]oxymethyl 2,2-dimethylpropanoate]
[1]; both sexes
  LD50: 200 mg/kg
  MTD: 200 mg/kg
ICR mice; iv
  ED50: 39.3 mg/kg
ICR mice; [3]
  Anesthesia induction time: <15.0 s
  Anesthesia maintenance time: 1915.5 s
ICR mice; prodrugs
  SI: 4.9
  TI: 5.1

## CC(=O)Oc1ccccc1C(=O)OCOc1c(C(C)C)cccc1[C@H](C)C1CC1 [Compound 38, [2-[(1R)-1-cyclopropylethyl]-6-isopropyl-phenoxy]methyl 2-acetoxybenzoate]
[1]; both sexes, intravenous
  MTD: 50 mg/kg
[1]; both sexes
  LD50: 80 mg/kg
ICR mice; [2]
  ED50: 26.1 mg/kg
ICR mice; [3]
  Anesthesia induction time: 141.0 s
  Anesthesia maintenance time: 478.9 s
ICR mice; prodrugs
  SI: 1.3
  TI: 3.1

## CC(C)c1cccc([C@H](C)C2CC2)c1OCOP(=O)([O-])[O-].[K+].[K+] [Compound 45]
[1]; both, intravenous
  MTD: 50 mg/kg
[1]; both
  LD50: 72.6 mg/kg

## CC(C)c1cccc([C@H](C)C2CC2)c1OCOC(=O)c1cccnc1 [Compound 51, [2-[(1R)-1-cyclopropylethyl]-6-isopropyl-phenoxy]methylpyridine-3-carboxylate]
[1]; both sexes, intravenous
  MTD: 40 mg/kg
[1]; both sexes
  LD50: 80 mg/kg
ICR mice; [2]
  ED50: 28.3 mg/kg
ICR mice; [3]
  Anesthesia induction time: 159.0 s
  Anesthesia maintenance time: 1159.9 s
ICR mice; prodrugs
  SI: 1.2
  TI: 2.8

## CC(C)C[C@H](N)C(=O)OCOc1c(C(C)C)cccc1[C@H](C)C1CC1 [Compound 60, [2-[(1R)-1-cyclopropylethyl]-6-isopropyl-phenoxy]methyl(2S)-2-amino-4-methyl-pentanoate trifluoroacetate]
[1]; both sexes, intravenous
  MTD: 50 mg/kg
[1]; both sexes
  LD50: 79.6 mg/kg
ICR mice; [2]
  ED50: 13.8 mg/kg
ICR mice; [3]
  Anesthesia induction time: 6.0 s
  Anesthesia maintenance time: 1473.0 s
ICR mice; prodrugs
  SI: 3.1
  TI: 5.8

## CC(C)c1cccc([C@H](C)C2CC2)c1OCOC(=O)[C@@H](N)Cc1ccccc1 [Compound 62, [2-[(1R)-1-cyclopropylethyl]-6-isopropyl-phenoxy]methyl(2S)-2-amino-3-phenylpropanoate trifluoroacetate]
[1]; both sexes, intravenous
  MTD: 30 mg/kg
[1]; both sexes
  LD50: 45.6 mg/kg
ICR mice; [2]
  ED50: 7.7 mg/kg
ICR mice; [3]
  Anesthesia induction time: <15.0 s
  Anesthesia maintenance time: 696.9 s
ICR mice; mice, prodrugs
  ED50 and efficacy compared with propofol: smaller ED50 value and higher efficacy than propofol
ICR mice; prodrugs
  SI: 1.6
  TI: 5.9

## CC(C)c1cccc([C@@H](C)C2CC2)c1OCOP(=O)([O-])[O-].[Na+].[Na+] [Compound 65]
[1]; both sexes, intravenous
  MTD: 200 mg/kg
[1]; both sexes
  LD50: 370 mg/kg
ICR mice; [2]
  ED50: 82.7 mg/kg
ICR mice; [3]
  Anesthesia induction time: 82.5 s
  Anesthesia maintenance time: 3278.0 s
ICR mice; prodrugs
  SI: 2.9
  TI: 4.5

## CC(C)c1cccc([C@H](C)C2CCC2)c1OCOP(=O)([O-])[O-].[Na+].[Na+] [Compound 74]
[1]; both, intravenous
  MTD: 120 mg/kg
[1]; both
  LD50: 192 mg/kg
ICR mice; [2]
  ED50: 48.3 mg/kg
ICR mice; [3]
  Anesthesia induction time: 96.5 s
  Anesthesia maintenance time: 2378.3 s
ICR mice; prodrugs
  SI: 2.5
  TI: 4.0

## C[C@@H](c1cccc([C@H](C)C2CC2)c1OCOP(=O)(O)O)C1CC1 [Compound 75, sodium (2,6-bis((R)-1-cyclopropylethyl)phenoxy)methyl phosphate]
[1]; both sexes, intravenous
  MTD: 30 mg/kg
[1]; both sexes
  LD50: 42.4 mg/kg
ICR mice; [2]
  ED50: 11.7 mg/kg
ICR mice; [3]
  Anesthesia induction time: 129.2 s
  Anesthesia maintenance time: 2070.4 s
ICR mice; prodrugs
  SI: 2.3
  TI: 3.6

— patent publication US9517988B2 (Sichuan Haisco Pharmaceutical Co., Ltd., priority 2013, dated 2016)
